Assay [1] in a line: Enhancement of BMP-2 expression in mouse MC3T3-E1 cells assessed as upregulation rate at 4 uM. Format: functional, cell-based.
The nature of assay [2]: Enhancement of BMP-2 expression in mouse MC3T3-E1 cells assessed as upregulation rate at 0.4 uM. In kind it is functional, cell-based.
Assay [3] concerns Rattus norvegicus. Description: Antiosteoporotic activity in ovariectomized Sprague-Dawley rat assessed as average osteoid width at 5 mg/kg/day, po for 90 days by bone histomorphometry. In kind it is functional.
Assay [4] relates to Rattus norvegicus. Description: Antiosteoporotic activity in ovariectomized Sprague-Dawley rat assessed as mineral apposition rate at 5 mg/kg/day, po for 90 days by bone histomorphometry. Format: functional.
The subject of assay [5] is Rattus norvegicus. Description: Antiosteoporotic activity in ovariectomized Sprague-Dawley rat assessed as trabecula formation surface at 5 mg/kg/day, po for 90 days by bone histomorphometry. In kind it is functional.
Assay [6] has as its system Rattus norvegicus. Description: Antiosteoporotic activity in ovariectomized Sprague-Dawley rat assessed as trabecular bone volume at 5 mg/kg/day, po for 90 days by bone histomorphometry. In kind it is functional, Trabecula.
The test system of assay [7] is Rattus norvegicus. Description: Antiosteoporotic activity in ovariectomized Sprague-Dawley rat assessed as trabecula resorption surface at 5 mg/kg/day, po for 90 days by bone histomorphometry. In kind it is functional.
In assay [8] the test system is Rattus norvegicus. Description: Antiosteoporotic activity in ovariectomized Sprague-Dawley rat assessed as osteo cortex mineralization rate at 5 mg/kg/day, po for 90 days by bone histomorphometry. In kind it is functional.

In the case of `NNC(=O)c1cc2ccccc2s1`, the Activity in assay [1] amounted to 7.8%.
Consider `CC(=O)c1sc2ccc(C)c(Cl)c2c1C`, for which the Activity in assay [1] was 6.5%.
Still for that read-out and setting: as for `COc1cc2cc(C(C)=O)sc2cc1OC`, the figure is 37.1%.
Same read-out and setting: as for `CC(=O)c1cc2cc(C(F)(F)F)ccc2s1`, the figure is 18.5%; as for `O=C(O)c1cc2ccccc2s1`, 10.8%; as for `CC(=O)c1cc2cccc(C(F)(F)F)c2s1`, 30.2%.
The same measure, in the same setting: with `NC(=O)c1cc2ccccc2s1` the figure was 11.2%; with `CC(=O)c1sc2ccccc2c1C`, 28%; with `CC(=O)c1csc2ccccc12`, 11.9%.
As for `CC(=O)c1cc2c(Cl)c(C)ccc2s1`, the Activity in assay [1] is 39.8%.
Still for that read-out and setting: with `CC(=O)c1sc2cccc(Cl)c2c1C` the figure was 16.5%; with `CC(=O)c1cc2c(Cl)cccc2s1`, 27.9%.
The same measure, in the same setting: as for `COC(=O)c1cc2ccccc2s1`, the figure is 27.3%.
As to `CC[C@H](C)C(=O)O[C@H]1C[C@@H](C)C=C2C=C[C@H](C)[C@H](CC[C@@H]3C[C@@H](O)CC(=O)O3)[C@H]21`, the Activity in assay [2] was found to be 20.9%.
In the case of `O=C(c1ccc(OCCN2CCCCC2)cc1)c1c(-c2ccc(O)cc2)sc2cc(O)ccc12` [RALOXIFENE], the Activity in the assay on Rattus norvegicus [3] stood at 11.1 µm; with Rattus norvegicus [4] it was 2.14 µm/day; in the assay on Rattus norvegicus [5] it was 6.52%; with Rattus norvegicus [6], 22.31%; in the assay with Rattus norvegicus [7], 3.34%; in the assay with Rattus norvegicus [8], 3.15 µm/day.
As for `CC(=O)c1c[nH]c2ccccc12`, the Activity in assay [1] was found to be 22.8%.
`CC(=O)c1sc2ccc(C(F)(F)F)cc2c1C`: the Activity in assay [1] came out at 16.7%.
Still for that read-out and setting: as for `CC(=O)c1cc2c(Cl)ccc(C)c2s1`, the figure is 32%.

Values taken from ChEMBL document CHEMBL1153043, “Synthesis and evaluation of 1-(benzo[b]thiophen-2-yl)ethanone analogues as novel anti-osteoporosis agents acting on BMP-2 promotor” (Bioorg Med Chem Lett, 2009).
